Structures can show the parent of a compound that is named as a salt.
Tested on: HMOX1
Test: HMOX1 Protein Assay (immunostaining of HO-1 in NHLF cells, GE InCell 1000)
Assay type: cell-based
Conditions: Homo sapiens, fold change above DMSO treated cells, 16 h; for fold induction at 3 µM: 3 μM compound (asterisk); for fold induction at 5 µM: 5 μM compound
Protocol: Cell Culture. Normal Human Fibroblast (NHLF), were obtained from Lonza. Cultures of cells were maintained in Fibroblast Growth Medium (FGM-2) medium supplemented with 2% fetal bovine serum (FBS), Fibroblast Growth Factor (hFGF-B) 0.5 mL, Insulin 0.5 mL, gentamicin/amphotericin-B 0.5 mL at 37° C. in a humidified atmosphere of 5% CO2. Cells were grown to 80% confluence before treating.
HMOX1 Protein Assay. NHLF cells were grown to 80% confluency and harvested by washing once with HEPES and then trypsinized. Equal numbers (2×10^3 cells per well) of NHLF cells were plated in 384 well optilux tissue culture (BD) plates. Cells were incubated overnight in FGM-2 medium prior to exposure to compound. Cells were treated with either vehicle (DMSO) or compound (dissolved in vehicle) for 16 h. Cells were washed 2× with 1×PBS and fixed with 4% Paraformaldyhyde for 15 min. The fixed cells were then permeabalized with 0.1% Triton X-100 and blocked with 5% BSA in 1×PBS 0.05% Tween-20 for 15 min. HO-1 antibody (abcam) was used for immunostaining at 1:300 dilution in 1% BSA in 1×PBS for 1 hour. Cells were washed 2× with 1×PBS and secondary antibody goat anti-mouse Alexa 488 1:400 dilution (Invitrogen); Hoechst 1:2000 (Invitrogen) in 1% BSA in 1×PBS for 1 hour. Plate was washed 5× with 1×PBS and read at Hoechst Ex.360 […]; Alexa 488 Ex.480 Em. 535 using GE InCell 1000. Results analyzed using GE InCell Analyzer software. Heme oxygenase data represents the fold change above DMSO treated cells.
In general, the fold induction data are reported for 5 μM concentration (i.e., μ-moles of compound to total volume, where the solvent is about 99.2% media and 0.8% DMSO). In some instances, the reported data are for 3 μM concentration, which are indicated by an asterisk (*).

Compound	fold induction at 3 µM	fold induction at 5 µM
CCN(CC)CCCNC(=O)c1ccc2c(c1)nc(Nc1nc3ccc(OC(F)(F)F)cc3s1)n2C [Example 351, 1-Methyl-2-(6-trifluoromethoxy-benzothiazol-2-ylamino)-1H-benzoimidazole-5-carboxylic acid (3-diethylamino-propyl)-amide]	25	
CN1CCN(CCNC(=O)c2ccc3c(c2)nc(Nc2nc4ccc(OC(F)(F)F)cc4s2)n3C)CC1 [Example 337, 1-Methyl-2-(6-trifluoromethoxy-benzothiazol-2-ylamino)-1H-benzoimidazole-5-carboxylic acid [2-(4-methyl-piperazin-1-yl)-ethyl]-amide]	12.7	
Cn1c(Nc2nc3ccc(C(F)(F)F)cc3s2)nc2cc(C(=O)NCC(=O)N3CCC(O)CC3)ccc21 [Example 437, 1-Methyl-2-(6-trifluoromethyl-benzothiazol-2-ylamino)-1H-benzoimidazole-5-carboxylic acid [2-(4-hydroxy-piperidin-1-yl)-2-oxo-ethyl]-amide]	47.1	
CN(C)C(=O)CCNC(=O)c1ccc2c(c1)nc(Nc1nc3ccc(Cl)cc3s1)n2C [Example 371, 2-(6-Chloro-benzothiazol-2-ylamino)-1-methyl-1H-benzoimidazole-5-carboxylic acid (2-dimethylcarbamoyl-ethyl)-amide]	29	
CN(C)N(C)C(=O)c1ccc2c(c1)nc(Nc1nc3ccc(OC(F)(F)F)cc3s1)n2C [Example 106, 1-Methyl-2-(6-trifluoromethoxy-benzothiazol-2-ylamino)-1H-benzimidazole-5-carboxylic acid trimethylhydrazide]		23.8
Cn1c(Nc2nc3ccc(OC(F)(F)F)cc3s2)nc2cc(C(=O)NCCCOCCO)ccc21 [Example 250, 1-Methyl-2-(6-trifluoromethoxy-benzothiazol-2-ylamino)-1H-benzoimidazole-5-carboxylic acid [3-(2-hydroxy-ethoxy)-propyl]-amide]	25.1	
Cn1c(Nc2nc3ccc(OC(F)(F)F)cc3s2)nc2cc(C(=O)NC[C@H](O)CO)ccc21 [Example 280, 1-Methyl-2-(6-trifluoromethoxy-benzothiazol-2-ylamino)-1H-benzoimidazole-5-carboxylic acid ((S)-2,3-dihydroxy-propyl)-amide]		38.8
C[C@@H](CO)CCNC(=O)c1ccc2c(c1)nc(Nc1nc3ccc(Cl)cc3s1)n2C [Example 224, 2-(6-Chloro-benzothiazol-2-ylamino)-1-methyl-1H-benzoimidazole-5-carboxylic acid ((R)-4-hydroxy-3-methyl-butyl)-amide]	15.5	
CN(C)CCCNC(=O)c1ccc2c(c1)nc(Nc1nc3ccc(C(F)(F)F)cc3s1)n2C [Example 350, 1-Methyl-2-(6-trifluoromethyl-benzothiazol-2-ylamino)-1H-benzoimidazole-5-carboxylic acid (3-dimethylamino-propyl)-amide]	24	
Cn1c(Nc2nc3ccc(OC(F)(F)F)cc3s2)nc2cc(C(=O)NCC3CCOCC3)ccc21 [Example 17, 1-Methyl-2-(6-trifluoromethoxy-benzothiazol-2-ylamino)-1H-benzoimidazole-5-carboxylic acid (tetrahydro-pyran-4-ylmethyl)-amide]		21.4
CNC(=O)c1ccc2c(c1)nc(Nc1nc3cc(F)c(F)cc3s1)n2C [Example 86, 2-(5,6-Difluoro-benzothiazol-2-ylamino)-1-methyl-1H-benzoimidazole-5-carboxylic acid methylamide]		9.7
Cn1c(Nc2nc3ccc(OC(F)(F)F)cc3s2)nc2cc(C(=O)NCC(=O)N3CCOCC3)cnc21 [Example 420, 3-Methyl-2-(6-trifluoromethoxy-benzothiazol-2-ylamino)-3H-imidazo[4,5-b]pyridine-6-carboxylic acid (2-morpholin-4-yl-2-oxo-ethyl)-amide]		33
COCCNC(=O)c1ccc2c(c1)nc(Nc1nc3ccc(S(C)(=O)=O)cc3s1)n2C [Example 127, 2-(6-Methanesulfonyl-benzothiazol-2-ylamino)-1-methyl-1H-benzimidazole-5-carboxylic acid (2-methoxy-ethyl)-amide]		12.4
Cn1c(Nc2nc3ccc(OC(F)(F)F)cc3s2)nc2cc(C(=O)NCc3ccc(O)cc3)ccc21 [Example 230, 1-Methyl-2-(6-trifluoromethoxy-benzothiazol-2-ylamino)-1H-benzoimidazole-5-carboxylic acid 4-hydroxy-benzylamide]		29.8
COC(=O)c1ccc2c(c1)nc(Nc1nc3ccc(Cl)cc3s1)n2C [Example 28, 2-(6-Chloro-benzothiazol-2-ylamino)-1-methyl-1H-benzoimidazole-5-carboxylic acid methyl ester]		10.1
Cn1c(Nc2nc3ccc(OC(F)(F)F)cc3s2)nc2ccc(C#N)cc21 [Example 195, 1-Methyl-2-(6-trifluoromethoxy-benzothiazol-2-ylamino)-1H-benzoimidazole-6-carbonitrile]		4.4
C[C@H](O)CNC(=O)c1ccc2c(c1)nc(Nc1nc3ccc(C(F)(F)F)cc3s1)n2C [Example 206, 1-Methyl-2-(6-trifluoromethyl-benzothiazol-2-ylamino)-1H-benzoimidazole-5-carboxylic acid ((S)-2-hydroxy-propyl)-amide]	27	
COCCn1c(Nc2nc3ccc(Cl)cc3s2)nc2cc(C(=O)NCCN3CCNC(=O)C3)ccc21 [Example 332, 2-(6-Chloro-benzothiazol-2-ylamino)-1-(2-methoxy-ethyl)-1H-benzoimidazole-5-carboxylic acid [2-(3-oxo-piperazin-1-yl)-ethyl]-amide]		55.9
CO[C@H]1CCN(C(=O)CNC(=O)c2ccc3c(c2)nc(Nc2nc4ccc(C(F)(F)F)cc4s2)n3C)C1 [Example 410, 1-Methyl-2-(6-trifluoromethyl-benzothiazol-2-ylamino)-1H-benzoimidazole-5-carboxylic acid [2-((S)-3-methoxy-pyrrolidin-1-yl)-2-oxo-ethyl]-amide]	24.7	
CN(C)C(=O)CNC(=O)c1ccc2c(c1)nc(Nc1nc3ccc(C(F)(F)F)cc3s1)n2C [Example 134, 1-Methyl-2-(6-trifluoromethyl-benzothiazol-2-ylamino)-1H-benzimidazole-5-carboxylic acid dimethylcarbamoylmethyl-amide]		54.5
Cn1c(Nc2nc3ccc(Cl)cc3s2)nc2cc(C(=O)NCC(=O)N3CCNCC3)ccc21 [Example 425, 2-(6-Chloro-benzothiazol-2-ylamino)-1-methyl-1H-benzoimidazole-5-carboxylic acid (2-oxo-2-piperazin-1-yl-ethyl)-amide hydrochloride]		20.3
CNC(=O)c1ccc2c(c1)nc(Nc1nc3cc(OC(F)(F)F)ccc3s1)n2C [Example 115, 1-Methyl-2-(5-trifluoromethoxy-benzothiazol-2-ylamino)-1H-benzimidazole-5-carboxylic acid methylamide]		1.5
CN1CCN(C(=O)CNC(=O)c2ccc3c(c2)nc(Nc2nc4ccc(C(F)(F)F)cc4s2)n3C)CC1 [Example 427, 1-Methyl-2-(6-trifluoromethyl-benzothiazol-2-ylamino)-1H-benzoimidazole-5-carboxylic acid [2-(4-methyl-piperazin-1-yl)-2-oxo-ethyl]-amide]	17	
CC(O)CNC(=O)c1ccc2c(c1)nc(Nc1nc3ccc(OC(F)(F)F)cc3s1)n2C (stereo not drawn) [Example 21, 1-Methyl-2-(6-trifluoromethoxy-benzothiazol-2-ylamino)-1H-benzoimidazole-5-carboxylic acid (2-hydroxy-propyl)-amide]		19.6
C[C@H](NC(=O)c1ccc2c(c1)nc(Nc1nc3ccc(Cl)cc3s1)n2C)C(=O)N1CCOCC1 [Example 465, 2-(6-Chloro-benzothiazol-2-ylamino)-1-methyl-1H-benzoimidazole-5-carboxylic acid ((S)-1-methyl-2-morpholin-4-yl-2-oxo-ethyl)-amide]	20.4	
CCOCCCNC(=O)c1ccc2c(c1)nc(Nc1nc3ccc(OC(F)(F)F)cc3s1)n2C [Example 14, 1-Methyl-2-(6-trifluoromethoxy-benzothiazol-2-ylamino)-1H-benzoimidazole-5-carboxylic acid (3-ethoxy-propyl)-amide]		22
CN(C)C(=O)[C@@H]1CCCN1C(=O)CNC(=O)c1ccc2c(c1)nc(Nc1nc3ccc(Cl)cc3s1)n2C [Example 419, 2-(6-Chloro-benzothiazol-2-ylamino)-1-methyl-1H-benzoimidazole-5-carboxylic acid [2-((S)-2-dimethylcarbamoyl-pyrrolidin-1-yl)-2-oxo-ethyl]-amide]		28
